# Experimental data taken from patent publication EP0516660B1, “USE OF S-ADENOSYL METHIONINE AS AN AGENT AGAINST VIRAL INFECTIONS BY RETROVIRUSES” (Grundmann, Ewald, Dr., priority 1990, dated 1991).
# Tested on: HIV
# Experiment: HIV-infected lymphocyte cultures, virus amount determined as radioactive reverse transcriptase in the culture supernatant
# Format: cell-based
# Conditions: for Reverse Transkriptase: HIV-Zahl in Lymphocyten-Kultur
# Procedure: Lymphocyten-Kulturen aus der Nabelschnur von Neugeborenen (H. Rübsamen-Waigmann et al. "Isolation of Variants of Lymphocytopathic Retroviruses from the Peripheral Blood and Cerebrospinal Fluid of Patients with ABC or AIDS", J. Medical Virology 19, S. 335 bis 344; 1986) wurden mit Viren, die dem Blut von AIDS-Kranken entnommen waren, geimpft. Dazu werden zu 5 ml der Lymphocyten-Kultur (1 · 10⁶ Zellen pro ml) 0,5 ml einer HIV-Suspension gegeben, die 10⁴ bis 10⁵ infektiöse Partikel pro ml enthält. Die Kulturmedien werden mit unterschiedlichen Mengen S-Adenosyl-L-methionintosylat-bis-Sulfat versetzt. Ein Drittel bis zur Hälfte des jeweiligen Kulturmediums werden nach 1 bis 2 Tagen durch frisches Kulturmedium gleicher Zusammensetzung ersetzt.
# Retroviren zeichnen sich dadurch aus, daß sie ausschließlich RNA (Ribonukleinsäure) als Nukleinsäure enthalten und eine spezielle Polymerase, nämlich Reverse Transkriptase benötigen, die nach der Infektion in der Wirtszelle aus der Virus-RNA eine in die DNA der Wirtszelle einbaubare Virus-DNA bildet, vgl. H. Rübsamen "Biochemie der Tumorviren", Chemie in unserer Zeit 17, S. 169 bis 180; 1983. Daraus ergibt sich eine Nachweismethode für Retroviren, die auf der für diese typischen Reversen Transkriptase und dem durch diese in die DNA eingebauten Tritium-markierten Thymidin beruht, vgl. H. Rübsamen et al., l.c.:
# In Abhängigkeit vom positiven Nachweis der Infektion durch mikroskopische Kontrolle werden nach 3 bis 5 Tagen jeweils 5 ml der überstehenden Kulturflüssigkeit durch Zentrifugieren (1o min bei 10.000 g) geklärt. Die so geklärte Probe wird bei 100.000 g/50 min zentrifugiert und der Rückstand in 60 µl eines Tris-Puffers lysiert (10 mM Tris, 0,2 % Triton X-100, 1 mM EDTA, 5 mM Dithiothreitol, 60 mM KCl, pH 7,3).
# Jeweils 30 µl des Lysats werden mit 30 µl Templat (0,01 mg/ml Poly(rA)·oligo (dT) (Pharmacia, Uppsala, Schweden) in 5 mM MgCl₂, 2,4 mM Dithiothreitol, 60 mM KCl und 0,0034 mM Methyl-[³H]thymidin-5'-Triphosphat; 48 Ci/mM, Amersham, Bucks; England) 90 min bei 37° C inkubiert. Die Reaktion wird durch Zugabe von 10-proz. Laurylsarkosin bis zu einer Laurylsarkosin-Endkonzentration von 1,4 % beendet. Die freie und in das RNA/DNA-Hybrid eingebaute Radioaktivität von 10 µl des mit Laurylsarkosin versetzten Inkubats werden dann in üblicher Weise an einem DEAE-Filter getrennt, das nach dem Waschen und Trocknen in eine Szintillationsflüssigkeit gegeben wird. Die Radioaktivität wird dann mit einem Szintillationszähler gemessen. Die eingebaute Radioaktivität (Zerfälle pro min pro 5 ml) nach Abzug des Blindwertes ist dann ein Maß für die in der überstehenden Kulturflüssigkeit enthaltene Reverse Transkriptase und damit für die Menge an Retroviren, die in der Kultur enthalten sind.
smiles,measurement,setting,value
"C[S+](CC[C@H](N)C(=O)O)C[C@H]1O[C@@H](n2cnc3c(N)ncnc32)[C@H](O)[C@@H]1O (stereo partly drawn) [Adenosylmethionin, S-Adenosyl-L-methionintosylat-bis-Sulfat]",Reverse Transkriptase,Adenosylmethionin 4 µg/ml,114 000 counts/min und 5 ml
same,Reverse Transkriptase,Adenosylmethionin 40 µg/ml,86 000 counts/min und 5 ml
same,Reverse Transkriptase,Adenosylmethionin 200 µg/ml,73 000 counts/min und 5 ml
same,Reverse Transkriptase,Adenosylmethionin 400 µg/ml,60 000 counts/min und 5 ml
same,Reverse Transkriptase,Adenosylmethionin 1000 µg/ml,29 000 counts/min und 5 ml
same,IC50,"Human immunodeficiency virus 1, Lymphocyte, read-out: Halbwertskonzentration, bei der die Retrovirenkonzentration auf die Hälfte zurückgeht",100 to 200 µg/mL
